Test results: the NIST ThermoML archive (doi:10.1021/je500804j)
± gives the expanded uncertainty stated by the source.

Assay: mn = molality of the nth substance listed, in mol/kg
Details: 101 kPa, Liquid, Alternating current cell with electrodes

CCCCCCCC[N+](C)(C)CCCCCCCCCCCC[N+](C)(C)CCCCCCCC.[Br-].[Br-] + O
Details | electrical conductivity [S/m]
288.15 K, m1 = 0.00524 | 0.0948 ± 0.00046
288.15 K, m1 = 0.00825 | 0.1292 ± 0.00057
288.15 K, m1 = 0.01026 | 0.1522 ± 0.00065
288.15 K, m1 = 0.01325 | 0.1863 ± 0.00078
288.15 K, m1 = 0.01696 | 0.2286 ± 0.00094
288.15 K, m1 = 0.01986 | 0.2617 ± 0.0011
288.15 K, m1 = 0.02257 | 0.2928 ± 0.0012
288.15 K, m1 = 0.02469 | 0.3169 ± 0.0013
288.15 K, m1 = 0.0276 | 0.3349 ± 0.0014
288.15 K, m1 = 0.03026 | 0.3455 ± 0.0014
288.15 K, m1 = 0.03258 | 0.3547 ± 0.0014
288.15 K, m1 = 0.03485 | 0.3637 ± 0.0015
288.15 K, m1 = 0.03697 | 0.3722 ± 0.0015
288.15 K, m1 = 0.03965 | 0.3828 ± 0.0015
288.15 K, m1 = 0.0414 | 0.3897 ± 0.0016
288.15 K, m1 = 0.04287 | 0.3956 ± 0.0016
288.15 K, m1 = 0.04499 | 0.404 ± 0.0016
288.15 K, m1 = 0.04668 | 0.4107 ± 0.0016
288.15 K, m1 = 0.04802 | 0.416 ± 0.0017
288.15 K, m1 = 0.04996 | 0.4237 ± 0.0017
288.15 K, m1 = 0.05094 | 0.4276 ± 0.0017
288.15 K, m1 = 0.05281 | 0.435 ± 0.0017
288.15 K, m1 = 0.0543 | 0.441 ± 0.0018
288.15 K, m1 = 0.0552 | 0.4446 ± 0.0018
288.15 K, m1 = 0.05651 | 0.4497 ± 0.0018
288.15 K, m1 = 0.05808 | 0.456 ± 0.0018
288.15 K, m1 = 0.05949 | 0.4616 ± 0.0019
288.15 K, m1 = 0.06045 | 0.4654 ± 0.0019
288.15 K, m1 = 0.06136 | 0.469 ± 0.0019
288.15 K, m1 = 0.06193 | 0.4713 ± 0.0019
293.15 K, m1 = 0.00394 | 0.05156 ± 0.00033
293.15 K, m1 = 0.00765 | 0.1034 ± 0.0005
293.15 K, m1 = 0.01114 | 0.1525 ± 0.00066
293.15 K, m1 = 0.01444 | 0.1943 ± 0.00081
293.15 K, m1 = 0.01756 | 0.229 ± 0.00094
293.15 K, m1 = 0.02051 | 0.2582 ± 0.001
293.15 K, m1 = 0.02331 | 0.2806 ± 0.0011
293.15 K, m1 = 0.02597 | 0.3012 ± 0.0012
293.15 K, m1 = 0.0285 | 0.316 ± 0.0013
293.15 K, m1 = 0.03091 | 0.3286 ± 0.0013
293.15 K, m1 = 0.0332 | 0.3423 ± 0.0014
293.15 K, m1 = 0.03539 | 0.3542 ± 0.0014
293.15 K, m1 = 0.03749 | 0.3651 ± 0.0015
293.15 K, m1 = 0.03949 | 0.3739 ± 0.0015
293.15 K, m1 = 0.0414 | 0.3836 ± 0.0015
293.15 K, m1 = 0.04323 | 0.3916 ± 0.0016
293.15 K, m1 = 0.04499 | 0.4007 ± 0.0016
293.15 K, m1 = 0.04668 | 0.4081 ± 0.0016
293.15 K, m1 = 0.0483 | 0.4165 ± 0.0017
293.15 K, m1 = 0.04986 | 0.4238 ± 0.0017
293.15 K, m1 = 0.05136 | 0.4302 ± 0.0017
293.15 K, m1 = 0.05281 | 0.436 ± 0.0018
293.15 K, m1 = 0.0542 | 0.4419 ± 0.0018
293.15 K, m1 = 0.05554 | 0.4484 ± 0.0018
293.15 K, m1 = 0.05683 | 0.4533 ± 0.0018
293.15 K, m1 = 0.05808 | 0.4587 ± 0.0018
293.15 K, m1 = 0.05929 | 0.4642 ± 0.0019
293.15 K, m1 = 0.06045 | 0.4689 ± 0.0019
293.15 K, m1 = 0.06158 | 0.4733 ± 0.0019
293.15 K, m1 = 0.06267 | 0.4778 ± 0.0019
298.15 K, m1 = 0.00394 | 0.04358 ± 0.00038
298.15 K, m1 = 0.00765 | 0.1152 ± 0.00058
298.15 K, m1 = 0.01115 | 0.1707 ± 0.00075
298.15 K, m1 = 0.01445 | 0.2175 ± 0.00092
298.15 K, m1 = 0.01541 | 0.2303 ± 0.00096
298.15 K, m1 = 0.01634 | 0.2425 ± 0.001
298.15 K, m1 = 0.01727 | 0.2535 ± 0.001
298.15 K, m1 = 0.01818 | 0.2637 ± 0.0011
298.15 K, m1 = 0.01907 | 0.2737 ± 0.0011
298.15 K, m1 = 0.01995 | 0.2808 ± 0.0011
298.15 K, m1 = 0.02081 | 0.2903 ± 0.0012
298.15 K, m1 = 0.02167 | 0.2984 ± 0.0012
298.15 K, m1 = 0.0225 | 0.306 ± 0.0013
298.15 K, m1 = 0.02333 | 0.3152 ± 0.0013
298.15 K, m1 = 0.02414 | 0.3211 ± 0.0013
298.15 K, m1 = 0.02494 | 0.3283 ± 0.0013
298.15 K, m1 = 0.02573 | 0.3337 ± 0.0014
298.15 K, m1 = 0.02651 | 0.3387 ± 0.0014
298.15 K, m1 = 0.02727 | 0.3443 ± 0.0014
298.15 K, m1 = 0.02802 | 0.349 ± 0.0014
298.15 K, m1 = 0.02877 | 0.3546 ± 0.0014
298.15 K, m1 = 0.0295 | 0.36 ± 0.0014
298.15 K, m1 = 0.03022 | 0.3649 ± 0.0015
298.15 K, m1 = 0.0314 | 0.3728 ± 0.0015
298.15 K, m1 = 0.03255 | 0.382 ± 0.0015
298.15 K, m1 = 0.03367 | 0.3883 ± 0.0016
298.15 K, m1 = 0.03477 | 0.3965 ± 0.0016
298.15 K, m1 = 0.03689 | 0.4084 ± 0.0016
298.15 K, m1 = 0.03892 | 0.4221 ± 0.0017
298.15 K, m1 = 0.04086 | 0.4336 ± 0.0018
298.15 K, m1 = 0.04272 | 0.4435 ± 0.0018
298.15 K, m1 = 0.0445 | 0.4525 ± 0.0018
298.15 K, m1 = 0.04621 | 0.4635 ± 0.0019
298.15 K, m1 = 0.04785 | 0.4712 ± 0.0019
298.15 K, m1 = 0.04943 | 0.4799 ± 0.0019
298.15 K, m1 = 0.05094 | 0.489 ± 0.002
298.15 K, m1 = 0.0524 | 0.4951 ± 0.002
298.15 K, m1 = 0.05381 | 0.5029 ± 0.002
298.15 K, m1 = 0.05517 | 0.5103 ± 0.0021
298.15 K, m1 = 0.05648 | 0.5162 ± 0.0021
298.15 K, m1 = 0.05774 | 0.5226 ± 0.0021
303.15 K, m1 = 0.00388 | 0.06075 ± 0.00048
303.15 K, m1 = 0.00752 | 0.1306 ± 0.00064
303.15 K, m1 = 0.01257 | 0.2181 ± 0.00094
303.15 K, m1 = 0.01415 | 0.2351 ± 0.00098
303.15 K, m1 = 0.01508 | 0.2505 ± 0.0011
303.15 K, m1 = 0.01599 | 0.2653 ± 0.0011
303.15 K, m1 = 0.01688 | 0.2779 ± 0.0011
303.15 K, m1 = 0.01776 | 0.2879 ± 0.0012
303.15 K, m1 = 0.01863 | 0.2986 ± 0.0012
303.15 K, m1 = 0.01948 | 0.3128 ± 0.0013
303.15 K, m1 = 0.02031 | 0.321 ± 0.0013
303.15 K, m1 = 0.02194 | 0.3372 ± 0.0014
303.15 K, m1 = 0.02274 | 0.3504 ± 0.0014
303.15 K, m1 = 0.02352 | 0.3547 ± 0.0014
303.15 K, m1 = 0.02429 | 0.3646 ± 0.0015
303.15 K, m1 = 0.02505 | 0.3691 ± 0.0015
303.15 K, m1 = 0.02652 | 0.3816 ± 0.0015
303.15 K, m1 = 0.02725 | 0.3867 ± 0.0016
303.15 K, m1 = 0.02796 | 0.3925 ± 0.0016
303.15 K, m1 = 0.02866 | 0.398 ± 0.0016
303.15 K, m1 = 0.02935 | 0.4046 ± 0.0016
303.15 K, m1 = 0.03003 | 0.4126 ± 0.0017
303.15 K, m1 = 0.03114 | 0.4192 ± 0.0017
303.15 K, m1 = 0.03222 | 0.4277 ± 0.0017
303.15 K, m1 = 0.03327 | 0.4359 ± 0.0018
303.15 K, m1 = 0.0343 | 0.4466 ± 0.0018
303.15 K, m1 = 0.03531 | 0.4517 ± 0.0018
303.15 K, m1 = 0.03629 | 0.4591 ± 0.0019
303.15 K, m1 = 0.03725 | 0.4681 ± 0.0019
303.15 K, m1 = 0.03819 | 0.4739 ± 0.0019
303.15 K, m1 = 0.03911 | 0.4794 ± 0.0019
303.15 K, m1 = 0.04 | 0.4859 ± 0.002
303.15 K, m1 = 0.04174 | 0.4978 ± 0.002
303.15 K, m1 = 0.0434 | 0.5113 ± 0.0021
303.15 K, m1 = 0.04498 | 0.5211 ± 0.0021
303.15 K, m1 = 0.04651 | 0.5314 ± 0.0022
303.15 K, m1 = 0.04797 | 0.5413 ± 0.0022
303.15 K, m1 = 0.04938 | 0.5513 ± 0.0022
303.15 K, m1 = 0.05073 | 0.56 ± 0.0023
303.15 K, m1 = 0.05203 | 0.5681 ± 0.0023
303.15 K, m1 = 0.05328 | 0.5759 ± 0.0023
303.15 K, m1 = 0.05448 | 0.5835 ± 0.0024
308.15 K, m1 = 0.00358 | 0.06093 ± 0.00052
308.15 K, m1 = 0.00694 | 0.1384 ± 0.0007
308.15 K, m1 = 0.01011 | 0.2008 ± 0.0009
308.15 K, m1 = 0.01163 | 0.23 ± 0.00099
308.15 K, m1 = 0.01311 | 0.2551 ± 0.0011
308.15 K, m1 = 0.01539 | 0.2922 ± 0.0012
308.15 K, m1 = 0.01622 | 0.3053 ± 0.0013
308.15 K, m1 = 0.01704 | 0.3166 ± 0.0013
308.15 K, m1 = 0.01784 | 0.3262 ± 0.0013
308.15 K, m1 = 0.01863 | 0.3371 ± 0.0014
